These are literature values, as cited in patent US11066448B2, “Zika as a cell penetrating peptide for delivery to the brain” (priority 2018, dated 2021).

For series [1] the following is noted: enzymatic hydrolysis, doxorubicin release.
The conditions of series [2]: human plasma; MMAE linked.

Phe-Lys: the half-life of cleavage in series [1] is listed as 8 min. The “stability relative to Val-Cit” value in series [2] is recorded as “substantially less stable”.
For the substance Val-Lys, the half-life of cleavage in series [1] is on record as 9 min.
With valine-citrulline [Val-Cit], the half-life of cleavage in series [1] was 240 min. In addition, the “stability relative to hydrazone linker” value in series [2] is “over 100 times”.
